In ChEMBL document CHEMBL1201862, “PubChem BioAssay data set” (2004):
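Each compound was tested at five concentrations against cells in 96-well plates for 48 hours. GI50 = concentration required for 50% inhibition of growth.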 Calls of active or inactive are those of the source. Rule as the data show it: active = GI50 up to about 1.1 µM and inactive = higher.

Key:
Experiment in all cases: inhibition of tumour cell growth, NCI panel, 48 h
UACC-257 = test system: UACC-257
UO-31 = test system: UO-31
HCT-116 = test system: HCT-116
SF-539 = test system: SF-539
OVCAR-8 = test system: OVCAR-8
DU-145 = test system: DU-145
A549 = test system: A549
SK-MEL-28 = test system: SK-MEL-28
HCC 2998 = test system: HCC 2998
Hs-578T = test system: Hs-578T
LOX IMVI = test system: LOX IMVI
BT-549 = test system: BT-549
NCI/ADR-RES = test system: NCI/ADR-RES
A498 = test system: A498
NCI-H23 = test system: NCI-H23
IGROV-1 = test system: IGROV-1
U-251 = test system: U-251
KM12 = test system: KM12
OVCAR-5 = test system: OVCAR-5
HOP-92 = test system: HOP-92

Compound	GI50 (UACC-257)	GI50 (UO-31)	GI50 (HCT-116)	GI50 (SF-539)	GI50 (OVCAR-8)	GI50 (DU-145)	GI50 (A549)	GI50 (SK-MEL-28)	GI50 (HCC 2998)	GI50 (Hs-578T)	GI50 (LOX IMVI)	GI50 (BT-549)	GI50 (NCI/ADR-RES)	GI50 (A498)	GI50 (NCI-H23)	GI50 (IGROV-1)	GI50 (U-251)	GI50 (KM12)	GI50 (OVCAR-5)	GI50 (HOP-92)
NC(=O)C(=CNC(N)=S)C(N)=O	> 100 µM (inactive)	60 µM (inactive)	> 100 µM (inactive)	> 100 µM (inactive)	> 100 µM (inactive)	> 100 µM (inactive)	> 100 µM (inactive)	> 100 µM (inactive)	> 100 µM (inactive)	> 100 µM (inactive)	> 100 µM (inactive)	> 100 µM (inactive)	> 100 µM (inactive)	> 100 µM (inactive)	> 100 µM (inactive)	> 100 µM (inactive)	> 100 µM (inactive)	> 100 µM (inactive)	> 100 µM (inactive)	
CC[C@](O)(C(=O)O)c1cc2n(c(=O)c1CO)Cc1cc3ccccc3nc1-2		0.0372 µM (active)	0.0308 µM (active)	0.0697 µM (active)		0.0137 µM (active)	0.0261 µM (active)		0.324 µM (active)	6.05 µM (inactive)		0.0791 µM (active)	0.0254 µM (active)	0.0398 µM (active)	0.025 µM (active)	0.0652 µM (active)	0.025 µM (active)		0.0566 µM (active)	0.112 µM (active)
Cc1ccc2c(c1)Sc1ccc(/N=N/N(C)C)cc1N2C		> 100 µM (inactive)	> 100 µM (inactive)		> 100 µM (inactive)	> 100 µM (inactive)	> 100 µM (inactive)	> 100 µM (inactive)	> 100 µM (inactive)	> 100 µM (inactive)	35.8 µM (inactive)	71 µM (inactive)	> 100 µM (inactive)	> 100 µM (inactive)	> 100 µM (inactive)	> 100 µM (inactive)	> 100 µM (inactive)	48.8 µM (inactive)	> 100 µM (inactive)	48.5 µM (inactive)
Nc1ccc(-c2nc3ccc(F)cc3s2)cc1Cl	> 100 µM (inactive)	> 100 µM (inactive)		53.5 µM (inactive)	> 65.5 µM (inactive)	> 100 µM (inactive)	> 100 µM (inactive)	> 100 µM (inactive)	0.0869 µM (active)	32.9 µM (inactive)	> 73.1 µM (inactive)	> 70.6 µM (inactive)	> 100 µM (inactive)	0.402 µM (active)	> 82 µM (inactive)	< 0.01 µM (active)	> 65.5 µM (inactive)	> 100 µM (inactive)		24.9 µM (inactive)
CSC(SC)=C(C#N)C(=O)Nc1ccc(Cl)cc1	> 100 µM (inactive)	22 µM (inactive)	29.1 µM (inactive)	27.7 µM (inactive)	52.8 µM (inactive)	74.6 µM (inactive)	31.3 µM (inactive)	> 100 µM (inactive)	> 100 µM (inactive)	> 100 µM (inactive)	23.1 µM (inactive)	46.7 µM (inactive)	44.4 µM (inactive)	10.6 µM (inactive)	30.2 µM (inactive)		91 µM (inactive)	68.2 µM (inactive)	> 100 µM (inactive)	
O=[N+]([O-])c1ccc(/N=N\c2c(O)c(S(=O)(=O)O)cc3cc(S(=O)(=O)O)ccc23)cc1	> 100 µM (inactive)	> 100 µM (inactive)	> 100 µM (inactive)	> 100 µM (inactive)	> 100 µM (inactive)	> 100 µM (inactive)	> 100 µM (inactive)	> 100 µM (inactive)	> 100 µM (inactive)	> 100 µM (inactive)	> 100 µM (inactive)	> 100 µM (inactive)	> 100 µM (inactive)	> 100 µM (inactive)	> 100 µM (inactive)	> 100 µM (inactive)	> 100 µM (inactive)		> 100 µM (inactive)	> 100 µM (inactive)
O=C(O)/C=C\C(=O)Nc1ccc2c(c1)C(=O)c1cc(F)ccc1-2	> 100 µM (inactive)	> 100 µM (inactive)	> 100 µM (inactive)	> 100 µM (inactive)	> 100 µM (inactive)	> 100 µM (inactive)	> 100 µM (inactive)	> 100 µM (inactive)		54.3 µM (inactive)	> 100 µM (inactive)	> 100 µM (inactive)	> 100 µM (inactive)	> 100 µM (inactive)	> 100 µM (inactive)	> 100 µM (inactive)	99.8 µM (inactive)	> 100 µM (inactive)	> 100 µM (inactive)	> 100 µM (inactive)
CCOC(=O)c1sc(N)nc1N1CCCC1	> 100 µM (inactive)	> 100 µM (inactive)	> 100 µM (inactive)	> 100 µM (inactive)	> 100 µM (inactive)	> 100 µM (inactive)	> 100 µM (inactive)	> 100 µM (inactive)		> 100 µM (inactive)	> 100 µM (inactive)	> 100 µM (inactive)	> 100 µM (inactive)	> 100 µM (inactive)	> 100 µM (inactive)	> 100 µM (inactive)	> 100 µM (inactive)	> 100 µM (inactive)	> 100 µM (inactive)	> 100 µM (inactive)
Cc1cc(-c2nc3cccc(F)c3s2)ccc1N	> 68.1 µM (inactive)	> 45 µM (inactive)	> 52.7 µM (inactive)	> 100 µM (inactive)	> 80.9 µM (inactive)	> 73.5 µM (inactive)	> 52 µM (inactive)	> 100 µM (inactive)	> 37.1 µM (inactive)	> 54.2 µM (inactive)	> 63.2 µM (inactive)	46.2 µM (inactive)	> 62.2 µM (inactive)	> 58.6 µM (inactive)		1.93 µM (inactive)	> 68.2 µM (inactive)	> 57.1 µM (inactive)		> 50.8 µM (inactive)
N=c1c2c(=S)n(-c3ccccc3)c(=S)n(-c3ccccc3)c2nc(SCCCN2CCCCC2)n1-c1ccccc1	1.75 µM (inactive)		1.73 µM (inactive)	2.93 µM (inactive)	1.85 µM (inactive)	1.66 µM (inactive)	1.83 µM (inactive)	2.11 µM (inactive)	1.49 µM (inactive)	2.79 µM (inactive)	0.91 µM (active)	1.75 µM (inactive)	2.91 µM (inactive)	2.52 µM (inactive)	1.98 µM (inactive)	1.5 µM (inactive)	1.74 µM (inactive)	1.82 µM (inactive)	11.5 µM (inactive)	1.78 µM (inactive)
CS(=O)(=O)CC(=O)c1ccccc1	> 100 µM (inactive)	> 100 µM (inactive)	> 100 µM (inactive)	> 100 µM (inactive)	> 100 µM (inactive)	> 100 µM (inactive)	> 100 µM (inactive)	> 100 µM (inactive)	> 100 µM (inactive)	> 100 µM (inactive)	> 100 µM (inactive)	> 100 µM (inactive)	> 100 µM (inactive)	> 100 µM (inactive)	> 100 µM (inactive)	> 100 µM (inactive)	> 100 µM (inactive)	> 100 µM (inactive)	> 100 µM (inactive)	
CC(C)(C)c1ccc(OC(=O)Nc2ccc(O)c(C(=O)O)c2)cc1	> 100 µM (inactive)		> 100 µM (inactive)	> 100 µM (inactive)	> 100 µM (inactive)	> 100 µM (inactive)	> 100 µM (inactive)	> 100 µM (inactive)		> 100 µM (inactive)	> 100 µM (inactive)	> 100 µM (inactive)	> 100 µM (inactive)	> 100 µM (inactive)	> 100 µM (inactive)	> 100 µM (inactive)	> 100 µM (inactive)	> 100 µM (inactive)	> 100 µM (inactive)	> 100 µM (inactive)
Oc1c(Br)cc(/C=C/c2ccnc(/C=C/c3cc(Br)c(O)c(Br)c3)c2)cc1Br	26.2 µM (inactive)	19.2 µM (inactive)	17 µM (inactive)	18.5 µM (inactive)	26.8 µM (inactive)	20.4 µM (inactive)	23.6 µM (inactive)	39 µM (inactive)	25.8 µM (inactive)	54.2 µM (inactive)	29.2 µM (inactive)	33.4 µM (inactive)	31.6 µM (inactive)	18.9 µM (inactive)		32.4 µM (inactive)	15.2 µM (inactive)	19.1 µM (inactive)	25.5 µM (inactive)	30.8 µM (inactive)
COC(=O)C1Cc2ccc3c(c2C1=O)CCCC3 (stereo not given)	> 100 µM (inactive)	61.4 µM (inactive)	39.7 µM (inactive)	> 100 µM (inactive)	92.3 µM (inactive)	> 100 µM (inactive)	> 100 µM (inactive)	> 100 µM (inactive)	> 100 µM (inactive)	> 100 µM (inactive)	38.1 µM (inactive)	> 100 µM (inactive)	> 100 µM (inactive)	> 100 µM (inactive)	74.5 µM (inactive)	> 100 µM (inactive)	61.9 µM (inactive)	> 100 µM (inactive)	> 100 µM (inactive)	
Cc1cnc(-c2c[nH]c3ccccc23)nc1-c1c[nH]c2ccccc12	6.82 µM (inactive)	6.97 µM (inactive)	4.56 µM (inactive)	11.7 µM (inactive)	6.08 µM (inactive)	6.73 µM (inactive)	3.64 µM (inactive)		4.67 µM (inactive)	17.9 µM (inactive)	3.62 µM (inactive)	19 µM (inactive)	7.67 µM (inactive)	2.6 µM (inactive)		1.14 µM (inactive)	6.46 µM (inactive)	3.78 µM (inactive)	5.5 µM (inactive)	2.03 µM (inactive)
